Measurements from US8969565B2, “Imidazo[1,2-b]pyridazine-based compounds, compositions comprising them, and methods of their use” (Lexicon Pharmaceuticals, Inc., priority 2012, dated 2015).

Experiments:
AAK1 [1] = molecular target: T1, AAK1 (Homo sapiens, UniProt Q2M2I8); assay: P81 filter plate assay; format: biochemical; conditions: full-length human AAK1, Mu2 substrate
T1 construct: HA; expressed in transfected cells; host or cells: HEK293F
Procedure: Compounds were serially diluted into a Labcyte LDV plate (Labcyte, cat#LP-0200) using a Mutiprobe (PerkinElmer) and Biomek FX (Beckman Coulter) so that the highest compound concentration was at 96 μM. Compounds were then pinged (75 nL per well) into a Greiner 384-well reaction plate (Greiner, #781076) using an ECHO 550 Liquid Handler (Labcyte). A total of 12 μl reaction buffer (IMAP buffer containing Tween and DTT, from Molecular Devices) was then added to each well of columns 1 and 13 for the negative controls and 12 μl of 2×AAK1 (0.2 nM full-length human protein, NCBI accession no. NP_055726.2) was added to the remaining wells. Enzyme was then pre-incubated with compound for 10 minutes at RT. Reactions were initiated upon Minitrak (PerkinElmer) addition of 12 μl substrate mix containing 2×Mu2 (0.2 μM, full length human protein), 2× cold ATP (2 μM), and 1.3 μCi of hot ^33P-ATP. Reactions proceeded for one hour at RT. Meanwhile, Millipore 384-well P81 filter plates (Millipore, catalog #MZPHNOW10) were placed on a plate washer (Zoom ZW, from Titertek) and pre-wet with 50 μl 1% phosphoric acid. Kinase reactions were then stopped upon addition of 24 μl of 2% phosphoric acid to each well and the Minitrak was then used to transfer 40 μl from each well into the pre-wet Millipore 384-well P81 filter plates. Reaction mixtures were incubated for 10 minutes at RT in the P81 plates, followed by washing five times with 100 μl/well of 1% phosphoric acid using the Zoom filter washer. The bottom of each filter plate was sealed followed by addition of 20 μl Microscint 40 to each well, sealing the top of the plates with Flashplate cover, and then waiting one hour until reading on the TopCount (PerkinElmer).

AAK1 [2] = molecular target: T1, AAK1; assay: HEK281 cell-based assay (phospho-mu2 Western blot in transfected HEK293F cells); conditions: 3 hours incubation, read-out: CBA IC50
Method in brief: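 HEK293F cells co-transfected with full-length human AAK1/HA and Flag/AP2M1 were treated next day with 5 compound concentrations (3-fold dilutions) in DMEM+0.5% FBS for 3 hours at 37° C. Lysates were Western blotted for phospho-mu2, with total mu2 detected by anti-Flag.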

T1 sequence (Q2M2I8 1-863 isoform Q2M2I8-2): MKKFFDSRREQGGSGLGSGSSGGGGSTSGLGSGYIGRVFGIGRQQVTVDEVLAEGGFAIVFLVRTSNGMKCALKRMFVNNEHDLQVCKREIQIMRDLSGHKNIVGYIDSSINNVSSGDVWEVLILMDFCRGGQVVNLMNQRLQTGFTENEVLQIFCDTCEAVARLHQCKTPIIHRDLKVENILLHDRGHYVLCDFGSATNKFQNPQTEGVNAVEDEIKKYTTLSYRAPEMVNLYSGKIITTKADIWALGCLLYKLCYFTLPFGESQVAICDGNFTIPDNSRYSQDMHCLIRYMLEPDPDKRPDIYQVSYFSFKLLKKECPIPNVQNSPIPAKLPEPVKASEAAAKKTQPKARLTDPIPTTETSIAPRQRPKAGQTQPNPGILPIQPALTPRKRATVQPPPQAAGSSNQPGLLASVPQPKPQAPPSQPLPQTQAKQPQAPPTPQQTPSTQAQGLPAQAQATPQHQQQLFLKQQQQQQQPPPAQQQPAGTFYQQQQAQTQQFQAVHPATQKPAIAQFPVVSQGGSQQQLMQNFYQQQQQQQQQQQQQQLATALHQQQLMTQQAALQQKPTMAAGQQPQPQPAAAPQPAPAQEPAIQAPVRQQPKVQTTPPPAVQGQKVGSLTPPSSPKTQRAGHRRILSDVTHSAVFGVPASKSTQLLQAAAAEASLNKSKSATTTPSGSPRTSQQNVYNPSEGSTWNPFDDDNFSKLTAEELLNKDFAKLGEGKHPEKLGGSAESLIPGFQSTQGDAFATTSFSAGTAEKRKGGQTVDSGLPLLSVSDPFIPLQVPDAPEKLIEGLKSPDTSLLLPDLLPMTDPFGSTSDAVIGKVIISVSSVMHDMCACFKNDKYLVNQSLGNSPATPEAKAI

Row | IC50 (AAK1 [1]) | IC50 (AAK1 [2]) | Structure (SMILES)
1 | ≤ 100 nM |  | CC(=O)c1cnc2ccc(N3CCN(C(=O)C4(N)CCCC4)CC3)nn12 [1-(6-(4-(1-aminocyclopentanecarbonyl)piperazin-1-yl)imidazo[1,2-b]pyridazin-3-yl)ethanone]
2 | ≤ 100 nM |  | CC(C)(C)C(=O)N1CCN(c2ccc3ncc(-c4ccccc4)n3n2)CC1 [2,2-dimethyl-1-(4-(3-phenylimidazo[1,2-b]pyridazin-6-yl)piperazin-1-yl)propan-1-one]
3 | ≤ 10 nM |  | O=C(OC1CCOC1)N1CCC[C@H]1CNc1ccc2ncc(-c3ccncc3)n2n1 (stereo partly drawn) [(2S)-tetrahydrofuran-3-yl 2-(((3-(pyridin-4-yl)imidazo[1,2-b]pyridazin-6-yl)amino)methyl)pyrrolidine-1-carboxylate]
4 | ≤ 10 nM |  | O=C(OC1CCOC1)N1CCC[C@H]1CNc1ccc2ncc(Br)n2n1 (stereo partly drawn) [(2S)-tetrahydrofuran-3-yl 2-(((3-bromoimidazo[1,2-b]pyridazin-6-yl)amino)methyl)pyrrolidine-1-carboxylate]
5 | ≤ 10 nM |  | OCc1ccc(-c2cnc3ccc(NCCOC4CCCC4)nn23)cc1 [(4-(6-((2-(cyclopentyloxy)ethyl)amino)imidazo[1,2-b]pyridazin-3-yl)phenyl)methanol]
6 | ≤ 10 nM |  | CC(C)CC(=O)N1CCC[C@H]1CNc1ccc2ncc(-c3ccnc(F)c3)n2n1 [(S)-1-(2-(((3-(2-fluoropyridin-4-yl)imidazo[1,2-b]pyridazin-6-yl)amino)methyl)pyrrolidin-1-yl)-3-methylbutan-1-one]
7 | ≤ 10 nM |  | CC(C)CC(=O)N1CCC[C@H]1CNc1ccc2ncc(C3=CCCC3)n2n1 [(S)-1-(2-(((3-(cyclopent-1-en-1-yl)imidazo[1,2-b]pyridazin-6-yl)amino)methyl)pyrrolidin-1-yl)-3-methylbutan-1-one]
8 |  | ≤ 100 nM | CN(CCNc1ccc2ncc(-c3ccc(CC#N)cc3)n2n1)C(=O)OC(C)(C)C [tert-butyl (2-((3-(4-(cyanomethyl)phenyl)imidazo[1,2-b]pyridazin-6-yl)amino)ethyl)(methyl)carbamate]
9 |  | ≤ 10 nM | CC(C)N(CCNc1ccc2ncc(-c3ccc(C(N)=O)cc3)n2n1)C(=O)OC(C)(C)C [tert-butyl (2-((3-(4-carbamoylphenyl)imidazo[1,2-b]pyridazin-6-yl)amino)ethyl)(isopropyl)carbamate]
10 |  | ≤ 10 nM | CC(=O)c1ccc(-c2cnc3ccc(NCCN(C)C(=O)OC(C)(C)C)nn23)s1 [tert-butyl (2-((3-(5-acetylthiophen-2-yl)imidazo[1,2-b]pyridazin-6-yl)amino)ethyl)(methyl)carbamate]
11 |  | ≤ 100 nM | CN(CCCNc1ccc2ncc(-c3ccc(CN)cc3)n2n1)C(=O)OC(C)(C)C [tert-butyl (3-((3-(4-(aminomethyl)phenyl)imidazo[1,2-b]pyridazin-6-yl)amino)propyl)(methyl)carbamate]
12 |  | ≤ 100 nM | CC(=O)c1ccc(-c2cnc3ccc(NCCCN(C)C(=O)OC(C)(C)C)nn23)s1 [tert-butyl (3-((3-(5-acetylthiophen-2-yl)imidazo[1,2-b]pyridazin-6-yl)amino)propyl)(methyl)carbamate]
13 |  | ≤ 100 nM | COc1cnccc1-c1cnc2ccc(NCCN(C(=O)OC(C)(C)C)C(C)C)nn12 [tert-butyl isopropyl(2-((3-(3-methoxypyridin-4-yl)imidazo[1,2-b]pyridazin-6-yl)amino)ethyl)carbamate]
14 |  | ≤ 100 nM | CNC(=O)c1ccc(-c2cnc3ccc(NCCN(C)C(=O)OC(C)(C)C)nn23)cc1 [tert-butyl methyl(2-((3-(4-(methylcarbamoyl)phenyl)imidazo[1,2-b]pyridazin-6-yl)amino)ethyl)carbamate]
15 |  | ≤ 10 nM | CN(CCNc1ccc2ncc(-c3ccc(C4CCCN4)cc3)n2n1)C(=O)OC(C)(C)C (stereo not shown) [tert-butyl methyl(2-((3-(4-(pyrrolidin-2-yl)phenyl)imidazo[1,2-b]pyridazin-6-yl)amino)ethyl)carbamate]
16 |  | ≤ 100 nM | CN(CCNc1ccc2ncc(-c3ccncc3)n2n1)C(=O)OC(C)(C)C [tert-butyl methyl(2-((3-(pyridin-4-yl)imidazo[1,2-b]pyridazin-6-yl)amino)ethyl)carbamate]
